Values quoted from earlier work as cited in patent publication US6518254B1, “Ribonucleoside-TRIBOSE” (priority 2002, dated 2003).

How the values were obtained:
[1] = compared with Ribavirin
DNA and RNA viruses = details: in vitro tissue culture; at least 16 DNA and RNA viruses; Science, 177, 705, 1972

Structure (SMILES) | immuno-modulatory activity [1] | antiviral activity in tissue culture (DNA and RNA viruses)
NC(=O)c1ncn([C@H]2O[C@@H](CO)[C@H](O)[C@@H]2O)n1 (single isomer, unassigned) [L isomer of Ribavirin] | immuno-modulatory activity similar to Ribavirin | 
NC(=O)c1ncn([C@@H]2O[C@H](CO)[C@@H](O)[C@H]2O)n1 [Ribavirin, 1-beta-D-ribofuranosyl-1H-1,2,4-triazole-3-carboxamide] |  | active against at least 16 DNA and RNA viruses
